Reference: EP2135612A1, “Use of ATP in the preparation of a medicament for treating, alleviating and/or enhancing survival of pre-terminal cancer patients” (Universiteit van Maastricht, priority 2008, dated 2009)

Assays:
[1] = test system: pre-terminal cancer patients; experiment: Randomized clinical trial: survival (Cox regression, Kaplan-Meier); type: in vivo
Experimental: (§1) Ninety-nine pre-terminal cancer patients (estimated life expectancy 1-6 mo) with mixed tumor types were randomly allocated to receive either ATP i.v. weekly (8 h/wk, max. 50 µg/kg.min) for 8 weeks, or no ATP (control group). Nutritional status parameters were assessed until 8 weeks, and analyzed by repeated-measures analysis of covariance. Cox proportional hazards models were fitted to assess the effect of ATP on short term (0-8 weeks) and long term (0-6 months) survival.
(§2) After baseline measurements, patients were stratified for center, tumor type, and weight loss (≤5% vs. >5% over past 6 months), and then randomly assigned to receive either usual care, standard nutritional advice and ATP (ATP group), or usual care and standard nutritional advice alone (control) group), using computer-generated random numbers with permutation blocks of four. In both groups, nutritional status parameters and co-interventions were assessed until 8 weeks.
(§3) Patients allocated to the ATP group received weekly ATP infusions during 8-10 hours over a period of 8 weeks (21). The first ATP infusion was offered under medical supervision at the day care center of the participating hospitals. ATP infusions were started at a dose rate of 20 µg/kg·min and increased in steps of 10 µg/kg·min per 10 minutes, until reaching a maximum dose rate of 50 µg/kg·min, or the maximally tolerated dose (MTD) if this was lower, in case of side effects. Thereafter, ATP was Infused at a continuous rate. Subsequent infusions were given at MTD in the patient's home.
Cox regression models were fitted including interaction terms between treatment and dummy variables for short term (i.e. 0-8 wks) and long term survival (i.e. 0-6 mo; dummy variables for 0-8 wks and 8 wks-6 mo were combined into a single dummy variable (0-6 mo) since Cox proportional hazards assumption was tested and not rejected). Median survival time was determined by extrapolation from confounder-adjusted Kaplan Meier plots. Because of previously shown survival benefit of ATP treatment in weight-losing stage IIIB NSCLC patients (18), we also performed stratified analyses in weight-stable and weight-losing patients separately defined as ≤5% or >5% weight loss over the past 6 months (22).
All models were appropriately adjusted for confounders. Two-tailed p-values <0.05 were considered statistically significant.

[2] = test system: stage IIIB/IV NSCLC patients; conditions: 15 chemotherapy-naïve stage IIIB/IV NSCLC patients; one to four 96-hour cycles i.v. ATP 50-65 µg/kg.min at 4-week intervals; cited from earlier work
[3] = test system: IL-10; conditions: ex vivo stimulated whole blood; cited from earlier work
[4] = test system: patients with non-small-cell lung cancer (NSCLC); conditions: cited from earlier work
[5] = test system: TNF-α; conditions: ex vivo stimulated whole blood; via P2Y11 receptor; cited from earlier work
[6] = test system: pre-terminal cancer patients; experiment: Randomized clinical trial: nutritional status (anthropometric measurements, nutritional intake) during the 8-week ATP intervention; type: in vivo
Experimental: as §1, §2, §3
Body height was determined using a flexible measuring tape. Body weight was measured without shoes, using an electronic scale (Soehnle 7407 Translucia, Germany). Triceps skin fold thickness was measured in triplicate at the dominant arm, with a Holtain® skin fold caliper (CMS weighing equipment LTD, London UK), and the median used for further calculations. Mid-upper arm circumference was measured in duplicate at the dominant side with a flexible measuring tape, and the mean value was used for further calculations.
In order to exclude inter-observer variability, longitudinal measurements in one patient were performed by one observer. Nutritional intake was assessed by a 3-day food diary, including meal preparation details, and checked by an experienced dietician. Intake of energy and protein was calculated using the Dutch Food Composition Table 2001 (NEVO, The Hague, The Netherlands), by the Software Program Komeet (version 4.0.58; BaS Nutrition Software, Arnhem, The Netherlands).
Data were doubly entered and analyzed according to the intention-to-treat principle. Curves were fitted to describe the time course of nutritional status parameters, and differences over time between the two groups appraised by repeated measurement analysis of covariance, using SAS Proc Mixed version 9.1 (SAS Institute Inc., Cary, NC, USA). Independent variables were the treatment indicator variable, the baseline measurement, measurement time, and the interaction between time and treatment. Statistical significance of treatment effects was assessed by testing the interaction between time and treatment. For weight analyses, patients with oedema and/or ascites were excluded. Because of the favorable previous results in patients with lung cancer (17), all analyses were repeated for this subgroup separately.

## Nc1ncnc2c1ncn2[C@@H]1O[C@H](COP(=O)(O)OP(=O)(O)OP(=O)(O)O)[C@@H](O)[C@H]1O [ATP, adenosine 5'-triphosphate]
[1]; census date 10 September 2007, ATP group n=51
  patients still alive on the census date: 6 patients
[1]; lung cancer patients with >5% overall weight loss, p=0.052
  HR, survival: 0.21
[1]; patients with lung cancer (n=44)
  HR, survival 0-8 weeks: 0.17
[1]; patients with lung cancer (n=44), p=0.025
  HR, survival 0-6 months: 0.35
[1]; total group (ATP n=51; control n=48), p=0.037
  HR of ATP vs. control, short-term (0-8 weeks) survival: 0.40
[1]; total group, ATP group, extrapolated from confounder-adjusted Kaplan Meier plots
  Median survival: 150 days
[1]; total group, p=0.26, not significant
  HR, long term survival (0-6 months): 0.71
[1]; weight-losing patients (>5% weight loss over past 6 months)
  effect on survival: No significant effect
[1]; weight-stable patients (≤5% weight loss over past 6 months; ATP n=33; control n=31), p=0.001
  HR, survival during the 8-week intervention: 0.20
[1]; weight-stable patients, p=0.014
  HR, long term survival (0-6 months): 0.40
[2]
  stable disease: 8 patients
[3]
  IL-10 release: enhanced
[4]; ATP infusions over 30 h at 2- to 4-week intervals, max. 75 µg/kg.min
  effects on nutritional intake, body weight, fat and muscle mass: marked beneficial effects
[4]; weight-losing patients with stage IIIB NSCLC
  survival: highly significant survival benefit
[5]
  TNF-α release: inhibited
[6]; ATP i.v. weekly 8-10 h, max. 50 µg/kg·min, 8 weeks, n=26, oedema/ascites excluded
  Weight, change per 8 weeks, ATP group Estimate: -2.62 kg
[6]; ATP i.v. weekly, max. 50 µg/kg·min, 8 weeks, n=48
  Triceps skin fold thickness, change per 8 weeks, ATP group Estimate: -1.84 mm
[6]; ATP i.v. weekly, max. 50 µg/kg·min, 8 weeks, n=49
  Mid-upper arm circumference, change per 8 weeks, ATP group Estimate: -2.24 cm
[6]; ATP vs. control, 8 weeks, 3-day food diary
  intake of energy and protein, difference between the two groups: No statistically significant difference
[6]; ATP vs. control, p=0.009
  Triceps skin fold thickness, Between group difference Estimate per 8 weeks: 1.76 mm
